Our source for the IC50 and IC90 values is US20240083981A1, “TREATMENT OF HERPES SIMPLEX VIRUS INFECTION” (priority 2022, published 2024).

pIC50: −log10 of the molar value.

Usually pIC50 stands for −log10 of the IC50, conventionally taken in molar units. A high value points to a small IC50. One may read the IC90 as the point of the concentration-response curve where the effect stands at 90%.

For one assay, the system named is HSV-1 RE TKnull. In words: microbe, parasite or virus in culture. The settings on record: Human alphaherpesvirus 1, Vero, 24 h.
The subject of the next assay is clinical HSV-1 isolates. The experiment in a line: Inhibition of clinically derived HSV-1 isolates in Vero cells, cell viability assay. The class given is cell-based. The settings on record: US origin. How it is done: Four American isolates (HSV-1 Bethesda and HSV-1 RH; HSV-2 Bethesda and HSV-2 RH), 3 Asian isolates (HSV-2 JA-1, HSV-2 JA-2, and HSV-2 JA-3), and 4 isolates with ACV resistance (poly-mut, C7, C8, and IC) were investigated via a cell viability assay. […] Then, the mixtures were aliquoted into a 96-well plate seeded with Vero cells. After incubation for 48 hours at 37° C., the plate was washed with PBS once, and the viable cells were incubated with 1% Alamar blue for 1 hour.

The next assay relates to HSV-2 333 TKnull. In words: microbe, parasite or virus in culture. Particulars: Human alphaherpesvirus 2, Vero, 24 h.
The mark [1] stands for this setting: Human alphaherpesvirus 1, Vero, HSV-1 RH.

On to `Nc1nc2c(ncn2COCCO)c(=O)[nH]1` [ACV, acyclovir], for which the pIC50 was under 7.00 in the assay with HSV-1 RE TKnull; 5.44 with clinical HSV-1 isolates (Human alphaherpesvirus 1, Vero, HSV-1 Bethesda); 5.33 in the assay on clinical HSV-1 isolates (setting [1]); under 7.00 with HSV-2 333 TKnull. Further, the IC90 in the assay on clinical HSV-1 isolates (HSV-1 Bethesda) and with clinical HSV-1 isolates (setting [1]) was over 35.5 µM in each case.
